pIC50: −log10 of the molar value.
What follows are molecules tested against purified human TDO protein (Homo sapiens (Human), UniProt P48775) (assay: Enzymatic TDO assay).
Format: biochemical
Method: Differently from the IDO activity assay, no methylene blue is added to the assay. The inhibitors were initially diluted in DMSO at 100 mM and were diluted in potassium phosphate 50 mM, added to the reaction mixture at final concentrations raging from 30 μM to 5 nM and preincubated with the enzyme for 5 min at 25° C. The reaction was started by addition of L-tryptophan to 20 μM and incubated 15 min at 37° C. The reaction was stopped by addition of 0.5 vol of 30% trichloroacetic acid and incubated 30 min at 60° C. to hydrolyze N-formylkynurenine to kynurenine. The reaction was centrifuged at 3400 g for 5 min to remove precipitated protein and the supernatant was reacted with 2% (w/v) of p-dimethylaminobenzaldehyde in acetic acid. The reaction was incubated 10 min at 25° C. and read at 480 nm in a spectrophotometer. Control samples with no TDO inhibitor, or with no TDO enzyme were used as controls to set the parameters for the non-linear regressions necessary for determination of the IC50 for each compound. Nonlinear regressions and determination of the IC50 values were performed using the GraphPad Prism 4 software.

Chain of purified human TDO protein (P48775 whole entry): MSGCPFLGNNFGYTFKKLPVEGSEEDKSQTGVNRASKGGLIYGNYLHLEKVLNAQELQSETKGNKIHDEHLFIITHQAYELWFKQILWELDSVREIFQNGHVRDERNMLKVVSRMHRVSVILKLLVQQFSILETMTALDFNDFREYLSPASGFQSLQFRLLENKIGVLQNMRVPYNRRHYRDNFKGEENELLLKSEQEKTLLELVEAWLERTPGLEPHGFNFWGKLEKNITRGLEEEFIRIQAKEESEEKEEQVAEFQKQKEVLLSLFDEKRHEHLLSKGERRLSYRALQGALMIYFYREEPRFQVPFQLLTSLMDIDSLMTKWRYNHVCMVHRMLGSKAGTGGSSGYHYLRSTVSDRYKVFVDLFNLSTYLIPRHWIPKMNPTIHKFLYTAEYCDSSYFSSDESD

Row | pIC50 | SMILES
1 | < 5.00 | O=C(CC1c2ccccc2-c2nncn21)C1CCCCC1 (stereo not drawn) [Compound 43, 2-(5H-[1,2,4]triazolo[3,4-a]isoindol-5-yl)-1-cyclohexylethan-1-one]
2 | < 5.00 | O=C(CC1c2ccccc2-c2cnnn21)C1CCC(F)(F)CC1 (stereo not drawn) [Compound 54, 2-(8H-[1,2,3]triazolo[5,1-a]isoindol-8-yl)-1-(4,4-difluorocyclohexyl)ethan-1-one]
3 | < 5.00 | OC(CC1c2ccccc2-c2nncn21)C1CCCCC1 (stereo not drawn) [Compound 69, 2-(5H-[1,2,4]triazolo[3,4-a]isoindol-5-yl)-1-cyclohexylethan-1-ol]
